Patent US5942529A, “Benzisothiazolyl-substituted aminomethylchromans” (Bayer Aktiengesellschaft, priority 1995, dated 1999)
Counter-ions that a name gives are not always drawn.

Tests used:
[1] = target: 5-HT1 receptor; experiment: Affinity for the 5-HT1 receptor (3H-serotonin binding, calf hippocampus membranes); conditions: calf hippocampus membrane preparations
Procedure: The values indicated are data which were determined from receptor binding studies using calf hippocampus membrane preparations. The radiolabelled ligand used for this purpose was ^3 H-serotonin. In the binding tests under 1) and 2), IC50 values are determined which indicate at which concentration of test substance 50% of the binding of the radioligand is displaced. Taking into account the dissociation constants and the concentration of radioligand, the inhibition constants Ki are calculated from this.

[2] = target: T1, 5-HT1A receptors (Bos taurus, UniProt F6Q2H9); experiment: Affinity for the 5-HT1A receptor (3H-ipsapirone binding, calf hippocampus membranes)
T1 construct: measured in calf hippocampus membranes; from tissue; host or cells: calf hippocampus membranes
T1 sequence (F6Q2H9 1-422): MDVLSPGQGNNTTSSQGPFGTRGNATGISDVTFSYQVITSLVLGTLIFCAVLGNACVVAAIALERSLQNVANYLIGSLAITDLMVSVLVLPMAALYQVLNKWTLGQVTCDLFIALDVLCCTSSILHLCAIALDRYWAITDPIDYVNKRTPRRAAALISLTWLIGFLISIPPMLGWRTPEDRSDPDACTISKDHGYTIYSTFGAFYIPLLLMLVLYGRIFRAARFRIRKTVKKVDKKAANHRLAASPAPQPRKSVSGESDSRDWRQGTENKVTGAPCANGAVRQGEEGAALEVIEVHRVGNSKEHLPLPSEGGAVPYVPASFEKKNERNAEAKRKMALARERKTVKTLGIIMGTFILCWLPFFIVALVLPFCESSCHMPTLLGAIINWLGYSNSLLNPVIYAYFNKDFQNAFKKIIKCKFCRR
Procedure: 2.) Affinity for the 5-HT1A receptor [W. U. Dompert et al., Naunyn-Schmiedeberg's Arch Pharmacol. (1985), 328, 467-470].
In this test, the binding of ^3 H-ipsapirone to 5-HT1A receptors is measured in calf hippocampus membranes.
In the binding tests under 1) and 2), IC50 values are determined which indicate at which concentration of test substance 50% of the binding of the radioligand is displaced. Taking into account the dissociation constants and the concentration of radioligand, the inhibition constants Ki are calculated from this.

[3] = system: permanent focal cerebral ischaemia (MCA-O); experiment: Permanent focal cerebral ischaemia (middle cerebral artery occlusion, MCA-O) in rats; assay type: in vivo; conditions: rat, continuous infusion 4 hours after occlusion, assessed 7 days after operation
Text: Animal model: permanent focal cerebral ischaemia ("middle cerebral artery occlusion"=MCA-O). MCA occlusion in rodents is a widely accepted animal model of stroke. Reference: Bederson, J. B. et al., Stroke, 17:472-476 (1986).
In order to produce permanent focal cerebral ischaemia, the left medial cerebral artery in rats is occluded by electrocoagulation. The resulting infarct volume in cortical (subcortical) regions which are supplied by the medial cerebral artery is used as a measure of the extent of the stroke-induced neuronal damage. Administration of substance: after occlusion as a continuous i.v. infusion (4 hours) of the test substance, beginning directly after operation. The animals are sacrificed for assessment 7 days after operation.

| Structure (SMILES) | Ki [1] | Ki [2] | % Reduction of the infarct volume ([3]; 0.001 mg/kg i.v.) | % Reduction of the infarct volume ([3]; 0.01 mg/kg i.v.) | % Reduction of the infarct volume ([3]; 0.1 mg/kg i.v.) | % Reduction of the infarct volume ([3]; 0.003 mg/kg i.v.) |
| --- | --- | --- | --- | --- | --- | --- |
| CC(C)(Cl)COc1cccc2c1OC(CNCCCCN1C(=O)c3ccccc3S1(=O)=O)CC2 (racemic) [Example 4] | 2.8 nM | – | – | – | – | – |
| CC1(C)Cc2ccc3c(c2O1)OC(CNCCCCN1C(=O)c2ccccc2S1(=O)=O)CC3 (racemic) [Example 5] | 0.5 nM | – | – | – | – | – |
| CC(C)Oc1cccc2c1OC(CNCCCCN1C(=O)c3ccccc3S1(=O)=O)CC2 (single isomer, unassigned) [Example 2] | – | 0.5 nM | 36% | 48% | 32% | – |
| CC1(C)Cc2ccc3c(c2O1)OC(CNCCCCN1C(=O)c2ccccc2S1(=O)=O)CC3 (single isomer, unassigned) [Example 6] | – | 0.9 nM | 41% | 41% | 38% | – |

Further lines, with some results ahead:

| Ki [1] | Ki [2] | Structure (SMILES) | % Reduction of the infarct volume ([3]; 0.001 mg/kg i.v.) | % Reduction of the infarct volume ([3]; 0.01 mg/kg i.v.) | % Reduction of the infarct volume ([3]; 0.1 mg/kg i.v.) | % Reduction of the infarct volume ([3]; 0.003 mg/kg i.v.) |
| --- | --- | --- | --- | --- | --- | --- |
| – | 1.8 nM | CC(C)(Cl)COc1cccc2c1OC(CNCCCCN1C(=O)c3ccccc3S1(=O)=O)CC2 (single isomer, unassigned) [Example 3] | 37% | 47% | – | 34% |
| 1.1 nM | – | CC(C)Oc1cccc2c1OC(CNCCCCN1C(=O)c3ccccc3S1(=O)=O)CC2 (stereo not drawn) [Example 1, 2-(N-(4-(1,1-Dioxido-3-oxo-2,3-dihydro-benzisothiazol-2-yl)butyl)amino)methyl-8-isopropoxy-chroman oxalate] | – | – | – | – |
